# Reference: the supplement of paper PMC10307832
# Legend:
# Assay in all cases: relative viability (nuclei count vs DMSO), 5 days (fraction); higher = more cells survive
# Dabrafenib + Pemetrexed = compound: CC(C)(C)c1nc(-c2cccc(NS(=O)(=O)c3c(F)cccc3F)c2F)c(-c2ccnc(N)n2)s1 [Dabrafenib] + Nc1nc2[nH]cc(CCc3ccc(C(=O)N[C@@H](CCC(=O)O)C(=O)O)cc3)c2c(=O)[nH]1 [Pemetrexed] (partner 0.2 µM)
# How it was run: (§1)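 Five library-drug doses in √10 steps were combined with a fixed anchor-drug dose, or a single drug was given alone, by pin tool to lung cancer cell lines in 1536-well plates the day after seeding. Nuclei were stained and counted after 5 days. Relative viability is the nuclei count in treated wells over that in vehicle wells, taken as the median of duplicate plates.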
# VX-702 + Decitabine = compound: NC(=O)c1ccc(N(C(N)=O)c2c(F)cccc2F)nc1-c1ccc(F)cc1F [VX-702] + Nc1ncn([C@H]2C[C@H](O)[C@@H](CO)O2)c(=O)n1 [Decitabine] (partner 2 µM)
# How it was run: as §1
# Dabrafenib + Palbociclib = compound: CC(C)(C)c1nc(-c2cccc(NS(=O)(=O)c3c(F)cccc3F)c2F)c(-c2ccnc(N)n2)s1 [Dabrafenib] + CC(=O)c1c(C)c2cnc(Nc3ccc(N4CCNCC4)cn3)nc2n(C2CCCC2)c1=O [Palbociclib] (partner 0.5 µM)
# How it was run: as §1
# VX-702 + Alpelisib = compound: NC(=O)c1ccc(N(C(N)=O)c2c(F)cccc2F)nc1-c1ccc(F)cc1F [VX-702] + Cc1nc(NC(=O)N2CCC[C@H]2C(N)=O)sc1-c1ccnc(C(C)(C)C(F)(F)F)c1 [Alpelisib] (partner 2 µM)
# How it was run: as §1
Cell Line,relative viability (Dabrafenib + Pemetrexed; first compound 0.009487 µM),relative viability (Dabrafenib + Pemetrexed; first compound 0.09487 µM),relative viability (Dabrafenib + Pemetrexed; first compound 0.3 µM),relative viability (VX-702 + Decitabine; first compound 0.02 µM),relative viability (VX-702 + Decitabine; first compound 0.2 µM),relative viability (VX-702 + Decitabine; first compound 0.6325 µM),relative viability (VX-702 + Decitabine; first compound 2 µM),relative viability (Dabrafenib + Palbociclib; first compound 0.009487 µM),relative viability (Dabrafenib + Palbociclib; first compound 0.09487 µM),relative viability (Dabrafenib + Palbociclib; first compound 0.3 µM),relative viability (VX-702 + Alpelisib; first compound 0.02 µM),relative viability (VX-702 + Alpelisib; first compound 0.2 µM),relative viability (VX-702 + Alpelisib; first compound 0.6325 µM),relative viability (VX-702 + Alpelisib; first compound 2 µM),relative viability (Dabrafenib + Pemetrexed; first compound 0.003 µM),relative viability (Dabrafenib + Pemetrexed; first compound 0.03 µM),relative viability (Dabrafenib + Palbociclib; first compound 0.003 µM),relative viability (Dabrafenib + Palbociclib; first compound 0.03 µM)
NCI-H322M,0.711,0.602,0.572,0.67,0.668,0.765,0.745,0.545,0.526,0.477,0.873,0.695,0.779,0.894,,,,
HCC-366,0.0959,0.124,0.193,0.331,0.305,0.353,0.266,0.403,0.354,0.344,0.37,0.369,0.296,0.463,0.216,0.172,0.434,0.336
NCI-H1355,1.09,0.804,1.08,0.348,0.33,0.366,0.318,0.458,0.409,0.47,0.778,0.807,0.799,0.876,,0.965,,0.373
LC-2-ad,0.283,0.269,0.286,0.849,0.807,0.821,0.776,0.511,0.476,0.478,0.943,0.885,0.868,1.02,0.271,0.25,0.52,0.495
NCI-H2087,0.64,0.695,0.643,0.288,0.242,0.254,0.294,0.218,0.235,0.208,1.2,1.04,1.04,1.19,,0.662,,0.246
BEN,0.764,0.846,0.908,0.724,0.646,0.694,0.776,0.477,0.426,0.448,0.823,0.912,0.919,1.18,,,,
NCI-H2228,0.415,0.332,0.321,,,,,0.801,0.668,0.7,0.826,0.64,0.753,0.856,0.342,0.357,0.502,0.753
HCC-827,0.288,,0.281,0.295,0.31,0.337,0.189,0.3,,0.525,0.982,1.04,0.884,0.684,0.224,0.243,0.465,0.374
IA-LM,,,,,,,,,,,0.718,0.725,0.782,0.748,,,,
NCI-H522,1.08,1.07,0.989,0.684,0.775,0.646,0.753,1.02,0.952,1.08,,,,,,0.833,,0.932
H3255,0.593,0.511,0.643,0.541,,0.671,0.625,0.313,0.313,0.333,0.727,0.78,0.723,0.907,0.564,0.607,0.288,0.343
NCI-H838,0.252,0.239,0.245,0.455,0.471,0.429,0.534,0.238,0.214,0.236,0.965,0.893,0.95,1.23,0.264,0.239,0.207,0.209
NCI-H1993,0.571,0.55,0.669,0.529,0.603,0.54,0.578,0.786,0.664,0.701,0.665,0.74,0.628,0.674,0.575,0.619,0.672,0.746
SK-MES-1,0.952,0.86,0.742,0.387,0.388,0.308,0.297,0.296,0.258,0.31,0.739,0.822,0.853,0.918,,0.915,,0.27
NCI-H661,0.934,0.931,0.933,0.567,0.583,0.58,0.591,0.406,0.458,0.433,0.536,0.364,0.338,0.997,0.942,0.876,0.383,0.426
NCI-H1650,0.391,0.389,0.419,0.477,0.422,0.44,0.46,0.382,0.301,0.358,,,,,0.364,0.389,0.332,0.235
ABC-1,,,,0.923,1.09,1.09,1.31,1.01,0.607,1.03,0.948,,0.901,1,,,,0.704
